This passage reports IC50 and Activity results from ChEMBL document CHEMBL4706528, “The design, synthesis and anti-tumor mechanism study of new androgen receptor degrader” (Eur J Med Chem, 2020).

For one test, the system named is MCF7. Briefly: Antiproliferative activity against androgen-positive human MCF7 cells assessed as cell growth inhibition measured after 72 hrs by SRB assay. In kind it is functional, cell-based. The following applies: MCF7, 72 h.
The test system of a further test is LNCaP. Briefly: Antiproliferative activity against androgen-positive human LNCaP cells assessed as cell growth inhibition measured after 72 hrs by SRB assay. The class given is functional, cell-based. For orientation: Sulforhodamine B stains cellular protein and so reports cell mass.
The target of test [1] is T1, Androgen receptor (Homo sapiens) (UniProt P10275).
T1 sequence (whole entry): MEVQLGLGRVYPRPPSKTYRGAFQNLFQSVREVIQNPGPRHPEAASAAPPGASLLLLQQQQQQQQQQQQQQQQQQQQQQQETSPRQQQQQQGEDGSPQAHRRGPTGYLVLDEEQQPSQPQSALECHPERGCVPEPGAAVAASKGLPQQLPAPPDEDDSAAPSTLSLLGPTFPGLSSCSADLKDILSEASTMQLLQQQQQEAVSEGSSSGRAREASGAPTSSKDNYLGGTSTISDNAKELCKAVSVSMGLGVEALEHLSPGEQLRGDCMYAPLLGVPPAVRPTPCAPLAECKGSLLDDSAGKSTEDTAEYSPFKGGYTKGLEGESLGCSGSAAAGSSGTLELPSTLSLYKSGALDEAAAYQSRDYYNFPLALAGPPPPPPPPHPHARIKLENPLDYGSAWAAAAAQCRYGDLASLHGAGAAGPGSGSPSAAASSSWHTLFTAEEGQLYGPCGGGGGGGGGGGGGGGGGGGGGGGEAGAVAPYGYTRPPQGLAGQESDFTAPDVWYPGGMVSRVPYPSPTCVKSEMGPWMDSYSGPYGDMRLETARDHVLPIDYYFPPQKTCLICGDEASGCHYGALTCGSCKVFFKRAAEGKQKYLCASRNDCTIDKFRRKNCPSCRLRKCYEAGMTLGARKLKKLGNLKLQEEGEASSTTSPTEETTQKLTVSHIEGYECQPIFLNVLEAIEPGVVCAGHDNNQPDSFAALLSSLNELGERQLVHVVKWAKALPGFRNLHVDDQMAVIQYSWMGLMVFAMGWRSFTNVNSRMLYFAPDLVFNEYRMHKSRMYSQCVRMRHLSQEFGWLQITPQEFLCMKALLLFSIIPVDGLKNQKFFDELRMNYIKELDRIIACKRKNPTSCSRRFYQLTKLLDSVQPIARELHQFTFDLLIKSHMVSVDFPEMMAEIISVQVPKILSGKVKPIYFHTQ
Put plainly: Binding affinity to androgen receptor LBD (unknown origin) at 10 uM incubated for 4 hrs under dark by fluorescence polarization based binding assay relative to R1881. In general terms: Polarisation of emitted light reports the rotation of a fluorescent probe.

A further test relates to LNCaP C4-2B. Briefly: Antiproliferative activity against androgen-sensitive positive human LNCaP C4-2B cells assessed as cell growth inhibition measured after 72 hrs by SRB assay. The class given is functional, cell-based.
The next test relates to PC-3. Briefly: Antiproliferative activity against androgen-negative human PC-3 cells assessed as cell growth inhibition measured after 72 hrs by SRB assay. The class given is functional, cell-based. To be noted: PC-3, 72 h.
A short description of test [2]: Cytotoxicity against androgen-negative human WPMY-1 cells assessed as cell growth inhibition measured after 72 hrs by SRB assay. The class given is cell-based. To be noted: WPMY-1, 72 h.
The subject of a further test is SGC-7901. Briefly: Antiproliferative activity against androgen-positive human SGC-7901 cells assessed as cell growth inhibition measured after 72 hrs by SRB assay. The class given is functional, cell-based. To be noted: SGC-7901, 72 h.
A further test deals with GES1. Briefly: Cytotoxicity against androgen-negative human GES1 cells assessed as cell growth inhibition measured after 72 hrs by SRB assay. The class given is cell-based. The following applies: GES1, 72 h.

Usually IC50 stands for the midpoint of a concentration-inhibition curve.

In the case of `CC1(C)C(=O)N(c2ccc(C#N)c(C(F)(F)F)c2)C(=S)N1CCCn1cc(COCCOCCOCCOC(=O)CC23CC4CC(CC(C4)C2)C3)nn1`, the 50% inhibitory concentration (IC50) in the test on MCF7 was 7.73 µM; in the test with LNCaP it was 3.97 µM; in the test on LNCaP C4-2B, 5.8 µM; in the test on PC-3, greater than 80 µM; in test [2] it was greater than 80 µM; with SGC-7901, 4.98 µM. In addition, the IC50 in the test on GES1 was greater than 80 µM. Further, the Activity in test [1] came out at 79.5%.

In the case of `CC1(C)C(=O)N(c2ccc(C#N)c(C(F)(F)F)c2)C(=S)N1CCCn1cc(COCCOCCOC(=O)CC23CC4CC(CC(C4)C2)C3)nn1`, the IC50 is 9.12 µM with MCF7; 4.06 µM with LNCaP; 6.03 µM in the test on LNCaP C4-2B; greater than 80 µM in the test on PC-3; greater than 80 µM in test [2]; 4.11 µM in the test on SGC-7901. Also, the IC50 in the test with GES1 was greater than 80 µM. Also, the Activity in test [1] is 74.6%.

Turning to `CC1(C)C(=O)N(c2ccc(C#N)c(C(F)(F)F)c2)C(=S)N1Cc1ccc(OCCCOC(=O)CC23CC4CC(CC(C4)C2)C3)cc1`, the IC50 (in the test with LNCaP; in the test on LNCaP C4-2B; in the test on PC-3; in test [2]) was greater than 80 µM throughout. Moreover, the Activity in test [1] worked out at 37.9%.

For the compound `CC1(C)C(=O)N(c2ccc(C#N)c(C(F)(F)F)c2)C(=S)N1Cc1ccc(OCCOCCOCCOC(=O)CC23CC4CC(CC(C4)C2)C3)cc1`, the half-maximal inhibitory concentration (IC50) is greater than 80 µM in the test with LNCaP, 14.6 µM in the test on LNCaP C4-2B, greater than 80 µM with PC-3 and greater than 80 µM in test [2]. The Activity in test [1] came out at 32%.

`CC1(C)C(=O)N(c2ccc(C#N)c(C(F)(F)F)c2)C(=S)N1CCCCn1cc(COCCOCCOC(=O)CC23CC4CC(CC(C4)C2)C3)nn1`: the 50% inhibitory concentration (IC50) in the test on MCF7 was 13.3 µM; in the test on LNCaP it was 1.86 µM; with LNCaP C4-2B it was 12.3 µM; in the test with PC-3, greater than 80 µM; in test [2] it was greater than 80 µM; in the test on SGC-7901, 7.79 µM. Further, the 50% inhibitory concentration (IC50) with GES1 was greater than 80 µM. Further, the Activity in test [1] was 87.8%.

On to `CC1(C)C(=O)N(c2ccc(C#N)c(C(F)(F)F)c2)C(=S)N1Cc1cn(CCOCCOC(=O)CC23CC4CC(CC(C4)C2)C3)nn1`, for which the IC50 in the test with LNCaP was greater than 80 µM; in the test on LNCaP C4-2B it was 17.4 µM; with PC-3, greater than 80 µM; in test [2], greater than 80 µM. The compound further gave an Activity in test [1] of 22.2%.

On to `CC1(C)C(=O)N(c2ccc(C#N)c(C(F)(F)F)c2)C(=O)N1Cc1cn(CCOCCOC(=O)CC23CC4CC(CC(C4)C2)C3)nn1`, for which the half-inhibitory concentration (IC50) was greater than 80 µM in the test with LNCaP, 11.9 µM in the test on LNCaP C4-2B, greater than 80 µM with PC-3 and greater than 80 µM in test [2]. For the same compound, the Activity in test [1] worked out at 52.8%.

As to `CC1(C)C(=O)N(c2ccc(C#N)c(C(F)(F)F)c2)C(=O)N1CCCn1cc(COCCOCCOCCOC(=O)CC23CC4CC(CC(C4)C2)C3)nn1`, the IC50 in the test with LNCaP is 6.66 µM; in the test with LNCaP C4-2B, 9.95 µM; in the test with PC-3, greater than 80 µM; in test [2], greater than 80 µM. Further, the Activity in test [1] is 33.9%.
